From patent US10800815B2, “Kv1.3 potassium channel antagonists” (cgtx-Peptide Development GmbH, priority 2014, dated 2020) come the findings set out here.

In data set [1] the test system is antigen induced arthritis (AIA). As to the kind of experiment: Antigen induced arthritis (AIA) rat model, knee joint swelling. It counts as in vivo. The settings on record: for reduction of knee swelling relative to the vehicle control group: 24 h after arthritis induction; for difference of absolute increase of knee swelling (induced minus un-induced knee): one day after arthritis induction.

Data set [2] deals with white blood cells in peripheral blood. The data set can be described thus: Haematology (WBC, neutrophil granulocytes, lymphocytes) in AIA rats. It counts as in vivo, rat. The procedure: For the blood withdrawal the animals were narcotized briefly, the tail was disinfected and the tail vein was punctured with a cannula, 50 μl of blood were withdrawn with a heparin coated pipette and mixed with 5 μl of a stabilising agent (CPD) and 1 μl heparin (1.5 U/μl diluted 1:4 in 0.9% NaCl).
White Blood Cells (WBC) were counted with a Coulter Counter in the automatic mode.
Blood samples were taken regularly for monitoring of hematological parameters. Haematological parameters were assessed in all animals weekly before induction, at day of induction and 10 days after induction (days −21, −14, −7, 0 and 10). […] Absolute counts of white blood cells (WBC), neutrophil granulocytes and lymphocytes were analyzed among others, the last two also stated in percentage of total WBC. EDTA whole blood of seven individuals from both vehicle and cgtx-544 peptide therapy group was measured with Sysmex XT-2000i.
For screening the state of health of all individuals, complete haemograms were used again. EDTA whole blood of seven individuals from both MTX high-dose and low-dose therapy groups were measured with Sysmex XT-2000i.V weekly before induction, at day of induction and 4 and 7 days after induction (day −21, −14, −7, 0, 4 and 7; MTX low-dose therapy group additionally on day −3, when i.v. application started).

Data set [3] deals with T1, Kv1.3 (Homo sapiens, UniProt P22001). The data set can be described thus: Decay of cgtx-544(Sing) in human blood serum at 37° C., blocking activity on Kv1.3 (Example 9). Type of data set: in vitro ADME. The procedure:
FIG. 33 Decay of cgtx-544(Sing) in human serum at 37° C. A known amount of cgtx-544(Sing) was added to human blood serum from 3 blood donors and incubated at 37° C. for a period of 57 days. The blocking activity of the peptide was measured on Kv1.3 channels over this period. The peptide remains stable for 16 h, and it can still be detected after 45 days. At 57 days the blocking effect is no longer visible. Decay is depicted as the reduction of concentration of cgtx-544 (Sing) as determined by: C(t)=IC50 (t0)/IC50(t).C0. The decay is fitted by a simple decay curve: C (t)=C0.2(−t/t1/2), where C0 is the initial concentration of peptide in solution, t0 is the 0 min incubation at 37° C. point, and t1/2 is the half-life.
Further to the experiments described in Example 3, the stability of the cgtx-544 peptide was tested in blood serum samples under in vitro conditions. Thus, the stability of cgtx-544(Sing) in human blood serum was determined by the addition of a known quantity of cgtx-544(Sing) to human blood serum and a subsequent incubation at 37° C. The blocking activity of ctx-544(Sing) was measured on Kv1.3 channels over a period of 57 days. cgtx-544(Sing) is extremely stable in human blood serum. Its activity remains constant for at least 16 hours, and decays slowly until no more peptide blocking effect is detectable after 57 days.

Data set [4] concerns the target T1, Kv1.3. As to the kind of experiment: Kv1.3 block with prolonged incubation times. Type of data set: cell-based. As to conditions: incubation about 20 min, after folding and purification.
The target of a further data set is T2, Kv1.2 (Homo sapiens, UniProt P16389).
T2 construct: expressed in transfected cells; host or cells: CHO cells, stably transfected
As to the kind of experiment: Patchliner electrophysiology on Kv1.2 in stably transfected CHO cells (Example 8). Type of data set: cell-based. How it is done:
(§1) Ion channels were expressed via Baculovirus (Kv1.1-, Kv1.3- and Kv1.5-constructs) infected Sf21 cells or stably transfected CHO cells (Kv1.2) as described in Examples 1, 2, and 4. Electrophysiological analysis was performed on the automated patch clamp device “Patchliner” (Nanion Technologies, Munich, Germany). The Patchliner is based on a planary patch clamp method borosilicate glass chip (NPC-16) instead of a glass pipettes. The Patchliner is able to record four cells at the same time. All channel recordings were made in the whole cell mode. Data recordings were performed with the PatchMaster software (HEKA Electronics, Lambrecht/Pfalz, Germany). Visualization of experimental results was realized with IGOR software (Wavemetrics, USA). Average data are presented as mean±standard error of the mean (SEM).
(§2) Test compounds were used as concentrated stock solutions (mostly 1.5 μg/μl). Stock solutions were diluted in buffer to the required final concentrations.

In data set [5] the target is T1, Kv1.3. The data set can be described thus: Patchliner electrophysiology of cgtx-544(Sing) on Kv1.3 in Baculovirus infected Sf21 cells (Example 8). Type of data set: cell-based. How it is done: as §1, §2
After chemical synthesis (see Example 7) the peptide was folded by oxidation with atmospheric oxygen and the correctly folded (biologically active) peptide fraction was purified by preparative HPLC. This purified cgtx-544 peptide was designated cgtx-544(Sing) for singular peak.

The next data set has as its target T3, Kv1.1 (Homo sapiens, UniProt Q09470).
T3 construct: expressed in transfected cells; host or cells: Sf21 insect cells, baculovirus infection
As to the kind of experiment: Patchliner electrophysiology on Kv1.1 in Baculovirus infected Sf21 cells (Example 8). Type of data set: cell-based. The procedure:
as §1, §2

Data set [6] in a line: Solubility and stability in 0.9% NaCl solution. Type of data set: physicochemical. The procedure: This peptide solution is being folded by oxidation (formation of disulfide bonds). The folding method is based on bond formation in phosphate buffer at pH 8.3 in the presence of atmospheric oxygen. […] Thus, after the folding reaction the active peptide (retention time 12.77 min) was purified from the cgtx-544 mixture of folded and partially folded peptides by preparative HPLC. After this purification step the active peptide—referred to as cgtx-544(Sing)—usually has an estimated purity of more than 95%.

A further data set is described as follows: in vivo. It counts as in vivo. The settings on record: rat. How it is done: FIG. 34 Decrease of cgtx-544(Sing) in the serum of treated rats after i.v. injection. The concentration of unbound circulating cgtx-544(Sing) was calculated on the basis of a standard curve. Standard error of the mean is depicted in the error bars (n=6).
Rats received i.v. injections of cgtx-544(Sing) (750 μg/kg BW). Blood was withdrawn at time points 0, 1, 10 and 60 minutes. Subsequently, serum was prepared from blood samples. The cgtx-544 content in these samples was analyzed electrophysiologically by measuring the blocking effect on Kv1.3 channels expressed in CHO cells. […] In order to study the amount of unbound cgtx-544(Sing) in the rat, the amount of cgtx-544(Sing) present in the circulating blood at the time points referred above was calculated through a calibration curve. This calibration curve was obtained by adding known quantities of cgtx-544(Sing) to blood serum and subsequent electrophysiological measurements on Kv1.3 channels. The block of Kv1.3 currents by these spiked samples was similar to that obtained with cgtx-544(Sing) in the absence of serum (data not shown).

The next data set deals with T4, Kv1.5 (Homo sapiens, UniProt P22460).
T4 construct: expressed in transfected cells; host or cells: Sf21 insect cells, baculovirus infection
As to the kind of experiment: Patchliner electrophysiology on Kv1.5 in Baculovirus infected Sf21 cells (Example 8). Type of data set: cell-based. As to conditions: 10 μM solution.

Setting [7] is: high-dose 1 mg/kg 1× weekly s.c.
Setting [8] is: low-dose 100 μg/kg 1× daily i.v.
[9] abbreviates: high-dose 1 mg/kg 1× weekly s.c., day 7.
The mark [10] stands for this setting: high-dose 1 mg/kg 1× weekly s.c., day −7.
[11] abbreviates: high-dose 1 mg/kg 1× weekly s.c., seven days after induction.
Setting [12] is: low-dose 100 μg/kg 1× daily i.v., day 7.

T2 sequence (P16389 whole entry): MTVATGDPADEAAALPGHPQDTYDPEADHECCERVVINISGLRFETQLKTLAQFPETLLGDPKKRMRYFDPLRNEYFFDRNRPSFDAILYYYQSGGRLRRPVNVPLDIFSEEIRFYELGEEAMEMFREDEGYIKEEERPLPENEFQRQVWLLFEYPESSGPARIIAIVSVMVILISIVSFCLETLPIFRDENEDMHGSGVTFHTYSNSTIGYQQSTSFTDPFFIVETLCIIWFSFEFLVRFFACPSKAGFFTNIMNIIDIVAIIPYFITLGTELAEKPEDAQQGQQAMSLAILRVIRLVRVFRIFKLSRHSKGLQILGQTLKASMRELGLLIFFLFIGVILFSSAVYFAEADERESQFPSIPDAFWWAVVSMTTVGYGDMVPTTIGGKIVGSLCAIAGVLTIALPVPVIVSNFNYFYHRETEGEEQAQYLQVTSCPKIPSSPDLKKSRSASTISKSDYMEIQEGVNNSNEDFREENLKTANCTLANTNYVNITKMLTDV
T1 sequence (P22001 whole entry): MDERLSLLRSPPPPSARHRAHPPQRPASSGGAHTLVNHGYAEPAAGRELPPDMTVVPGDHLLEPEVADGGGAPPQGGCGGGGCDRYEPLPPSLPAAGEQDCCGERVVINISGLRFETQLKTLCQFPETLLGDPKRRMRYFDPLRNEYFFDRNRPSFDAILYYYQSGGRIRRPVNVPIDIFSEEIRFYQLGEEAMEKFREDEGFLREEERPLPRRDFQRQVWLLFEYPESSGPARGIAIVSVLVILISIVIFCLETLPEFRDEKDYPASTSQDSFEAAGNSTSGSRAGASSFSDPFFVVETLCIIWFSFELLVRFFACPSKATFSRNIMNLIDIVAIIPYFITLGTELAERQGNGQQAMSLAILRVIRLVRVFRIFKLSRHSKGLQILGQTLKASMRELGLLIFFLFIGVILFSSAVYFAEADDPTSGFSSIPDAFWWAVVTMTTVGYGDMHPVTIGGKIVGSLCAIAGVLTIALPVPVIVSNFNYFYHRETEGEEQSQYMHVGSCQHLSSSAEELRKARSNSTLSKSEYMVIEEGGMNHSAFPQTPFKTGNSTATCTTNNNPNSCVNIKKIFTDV
T3 sequence (Q09470 whole entry): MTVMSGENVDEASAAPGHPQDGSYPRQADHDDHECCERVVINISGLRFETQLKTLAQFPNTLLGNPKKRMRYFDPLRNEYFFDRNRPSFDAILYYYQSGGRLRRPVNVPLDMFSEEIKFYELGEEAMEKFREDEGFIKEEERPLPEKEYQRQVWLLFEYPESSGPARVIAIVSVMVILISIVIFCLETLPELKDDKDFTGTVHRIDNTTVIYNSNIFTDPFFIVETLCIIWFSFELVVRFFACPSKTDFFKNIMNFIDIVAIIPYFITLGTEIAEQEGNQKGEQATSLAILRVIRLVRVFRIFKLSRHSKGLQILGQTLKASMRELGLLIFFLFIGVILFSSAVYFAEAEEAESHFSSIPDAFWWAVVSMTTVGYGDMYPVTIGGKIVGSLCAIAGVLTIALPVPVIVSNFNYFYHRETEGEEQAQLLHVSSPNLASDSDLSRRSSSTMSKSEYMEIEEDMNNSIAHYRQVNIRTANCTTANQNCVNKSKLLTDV
T4 sequence (P22460 whole entry): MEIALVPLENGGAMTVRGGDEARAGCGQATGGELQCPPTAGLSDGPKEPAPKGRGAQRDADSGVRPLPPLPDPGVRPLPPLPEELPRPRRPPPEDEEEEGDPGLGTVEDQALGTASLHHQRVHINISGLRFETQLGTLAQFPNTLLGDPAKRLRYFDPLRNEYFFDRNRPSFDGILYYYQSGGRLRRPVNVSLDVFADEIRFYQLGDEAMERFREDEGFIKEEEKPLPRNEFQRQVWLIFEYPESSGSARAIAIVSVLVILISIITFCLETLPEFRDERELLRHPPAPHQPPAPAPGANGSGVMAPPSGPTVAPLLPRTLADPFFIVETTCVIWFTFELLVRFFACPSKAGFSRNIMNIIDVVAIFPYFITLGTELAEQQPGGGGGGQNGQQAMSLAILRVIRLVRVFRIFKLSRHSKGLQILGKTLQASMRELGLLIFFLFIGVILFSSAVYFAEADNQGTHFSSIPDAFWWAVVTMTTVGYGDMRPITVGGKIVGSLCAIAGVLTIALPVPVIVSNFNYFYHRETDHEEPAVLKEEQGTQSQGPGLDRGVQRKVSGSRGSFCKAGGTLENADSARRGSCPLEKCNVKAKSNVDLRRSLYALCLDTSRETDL

With `CN(Cc1cnc2nc(N)nc(N)c2n1)c1ccc(C(=O)N[C@@H](CCC(=O)O)C(=O)O)cc1` [MTX, Methotrexate], in data set [1] (setting [7]), the “relative difference of knee swelling (normalized)” value was 0.39±0.16, the “reduction of knee swelling relative to the vehicle control group” value was 15% and the “difference of absolute increase of knee swelling (induced minus un-induced knee)” value stood at 3.17±1.26 mm. For the same compound, in data set [1] (setting [8]), the “relative difference of knee swelling (normalized)” value worked out at 0.43±0.11, the “reduction of knee swelling relative to the vehicle control group” value came out at 7% and the “difference of absolute increase of knee swelling (induced minus un-induced knee)” value was found to be 3.45±0.87 mm. Also, in data set [2] (setting [9]), the WBC count is recorded as 14.68±2.15 ×10^3/μl, the absolute lymphocyte count is on record as 11.38±1.15 ×10^3/μl and the lymphocyte percentage is listed as 78.16±7.20 % of WBC. Besides, in data set [2] (setting [10]), the WBC count is listed as 20.79±5.96 ×10^3/μl, the absolute lymphocyte count is listed as 11.68±2.8 ×10^3/μl, the “absolute neutrophil granulocyte count” value is 7.54±3.19 ×10^3/μl and the lymphocyte percentage is recorded as 57.01±6.45 % of WBC. Besides, the relative neutrophils in [2] (setting [10]) is listed as 35.46±7.08 % of WBC. Besides, in data set [2] (setting [11]), the “absolute neutrophil granulocyte count” value is listed as 1.94±1.1 ×10^3/μl and the relative neutrophils is on record as 12.63±6.1 % of WBC. Besides, in [2] (setting [12]), the WBC count is given as 6.63±1.37 ×10^3/μl, the absolute lymphocyte count is 6.14±1.11 ×10^3/μl, the “absolute neutrophil granulocyte count” value is listed as 0.33±0.36 ×10^3/μl and the “decrease of WBC counts compared to the beginning of the experiment” value is given as roughly 50%. In data set [2] (setting [12]), the lymphocyte percentage was 93.13±4.66 % of WBC and the relative neutrophils is 4.41±4.63 % of WBC. In addition, in [2] (low-dose treated individuals, seven days after arthritis induction), the “effect in the haemogram compared to the vehicle control group” value was “reduction of WBC count, neutrophil granulocyte count and lymphocyte count”.
Turning to `CC[C@H](C)[C@H](NC(=O)[C@@H](N)[C@@H](C)O)C(=O)N[C@H](C(=O)N[C@@H](CC(N)=O)C(=O)N[C@H](C(=O)N[C@@H](CCCCN)C(=O)N[C@H]1CSSC[C@@H]2NC(=O)[C@H](CCCCN)NC(=O)CNC(=O)[C@H](Cc3ccc(O)cc3)NC(=O)[C@@H]3CCCN3C(=O)[C@@H]3CSSC[C@@H](C(=O)O)NC(=O)[C@H](CCCNC(=N)N)NC(=O)[C@H](CC(N)=O)NC(=O)[C@@H]4CSSC[C@H](NC(=O)[C@@H]5CCCN5C(=O)[C@@H]5CCCN5C(=O)[C@H](CC(C)C)NC(=O)[C@H](CSSC[C@H](NC(=O)[C@H](CCCCN)NC(=O)[C@H](CCCNC(=N)N)NC(=O)[C@H](CC(N)=O)NC(=O)[C@H](CCSC)NC2=O)C(=O)N[C@@H](CCCCN)C(=O)N4)NC(=O)[C@H](CCC(N)=O)NC(=O)[C@H](CCCCN)NC(=O)[C@@H]2CCCN2C(=O)[C@H](CO)NC(=O)[C@H]([C@@H](C)O)NC1=O)C(=O)N[C@@H](CCCCN)C(=O)N[C@@H](C)C(=O)N[C@@H](CCC(N)=O)C(=O)N[C@@H]([C@@H](C)O)C(=O)NCC(=O)N3)C(C)C)[C@@H](C)CC` [cgtx-544(Sing)], on Kv1.3 [3] (human blood serum, 37° C.), the “time after which the peptide can still be detected” value was 45 days. Besides, on Kv1.3 [3] (human blood serum, 37° C.), the “time at which blocking effect is no longer visible” value is recorded as 57 days. In addition, at Kv1.3 [3] (human serum at 37° C.), the “period for which 50% activity was retained” value was 5 days. The IC50 is roughly 0.9 nM against Kv1.3 [4], 2500 nM against Kv1.2, 6.9 nM on Kv1.3 [5] and roughly 6000 nM against Kv1.1. For the same compound, the “effect on Kv1.2 currents” value was “did not alter” at Kv1.2 (100 nM solution, stably transfected CHO cells) and “only slightly reduced currents” on Kv1.2 (concentrations >1 μM). In addition, the solubility entry in data set [6] (0.9% NaCl solution) is recorded as “highly soluble”. For the same compound, the stability in solution entry in data set [6] (0.9% NaCl solution at RT and 4° C.) is reported as “up to several weeks”. Moreover, the half-life in “in vivo” (in vivo, iv, 750 ug/kg, 750 μg/kg BW) is roughly 26 min. The “blocking activity of serum sample relative to the 1 minute sample” value in “in vivo” (750 μg/kg BW i.v., 60 minutes) amounted to 10%. In the data set “in vivo” (i.v., 750 μg/kg BW), the “approximate concentration in the circulating blood” value was roughly 62 nM. For the same compound, the “reduction of Kv1.5 currents” value on Kv1.5 is given as “did not induce a significant reduction”.
